Reference: patent US20230405003A1, “APPLICATION OF THYMIDINE DERIVATIVE IN PREPARATION OF DRUGS” (ONQUALITY PHARMACEUTICALS CHINA LTD., priority 2020, published 2023)
Read-outs that look alike come from different tables or passages of the source.

Key:
blood cells = test: Blood cell count after 5-FU diarrhea experiment in mice; format: in vivo, mouse; settings: orbital blood after 5-FU 70 mg/kg/d i.p. three days
Text: After completion of the experiments, the mice in the 5-FU control group and the experimental group were subject to blood collection at orbital. Blood cells were counted.

HaCaT cells = test: Relief of 5-FU proliferative toxicity to HaCaT cells (CCK-8 cell survival); format: cell-based; settings: for Cell Survival Rate (increased percentage of cell survival compared with the Group of 5-FU): 5-Fu 20 μM, HaCaT cells
In short: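 HaCaT keratinocytes (5000–10000/well) cultured 24 h, then exposed 48 h to 5-FU alone or with thymidine derivative, or thymidine plus uridine derivative mix, versus solvent-matched blanks. Survival by CCK-8; value is % increase in survival over 5-FU alone, t-test.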

[1] = test system: hand-foot syndrome caused by capecitabine in SD rats; test: Rat model of hand-foot syndrome caused by capecitabine, gel application; format: in vivo; settings: capecitabine 4000 mg/kg once daily, 40 days; for inhibition in vivo at 3 % / inhibition in vivo at 5 %: Rattus norvegicus, topical, 960 h; for inhibition in vivo at 3 % / Control Rate Forepaws / Control Rate Hindpaws / inhibition in vivo at 5 %: rats; for inhibition in vivo at 5 %: gel 5 wt%
Procedure: A rat animal model was established. 6-week aged female SD rats were administered with capecitabine by daily gavage. The degree of hand-foot syndrome in paws is similar, and there was no difference between the left and right paws. Similar to the human body, rats developed hand-foot syndrome after oral administration of capecitabine. The causes of the two are the same, and the disorder is also very similar. Therefore, rats are very good animal models for simulating the hand-foot syndrome caused by capecitabine.
(§1) After SD rats were fed and adapted for one week (about 200 g), the rats were divided into groups, with 10 rats in each group. Then, the rats were subject to gavage administration. Capecitabine was dissolved in a 1:1 mixed solution of castor oil and ethanol and diluted for three times with PBS buffer. After gavage, the rats were fixed with a fixed cylinder, and a gel of thymidine derivative (or a compounded gel of thymidine derivative and uridine derivative) was applied to double hind paws (about 1 cm*3 cm) of the rats in group of administration (the types and concentrations are shown in Table 4), and a blank gel was applied to the group of blank (as a blank control). After approximately 4 hours of application, the rats were released after 4 hours, wiped with clean water to remove any residual drug at the application site, and allowed back to the cage. The thymidine derivative gel (or the compounded gel of thymidine derivative and uridine derivative) was administered with gavage every day. The gavage and application tests are repeated daily until the group of blank has developed obvious hand-foot syndrome.
Table 4 lists the combinations of animal experiments of capecitabine and the thymidine derivative gel (or the compounded gel of thymidine derivative and uridine derivative) and the corresponding experimental results (wherein, the data in the column of control rate=the occurrence rate of hand-foot syndrome in group of blank—the occurrence rate of hand-foot syndrome in group of administration). […]

[2] = test system: pain in capecitabine hand-foot syndrome rats; test: Pain of hand-foot syndrome, mechanical sensitivity in rats (von Frey); format: in vivo, rat; settings: capecitabine 4000 mg/kg hand-foot syndrome rats; thymidine derivative 3%
Procedure: According to the method of Examples 91-115, after administration of a thymidine derivative (at a concentration of 3%) and co-administration of a thymidine derivative (at a concentration of 1%) with a uridine derivative (at a concentration of 3%) to rat hand-foot syndrome models constructed from 4000 mg/kg of capecitabine for a period of time, pain analysis was performed on the rats, and the pain assessment model was mechanical sensitivity in rats (von Frey). The experimental steps were as follows: first, the rats were allowed to adapt in the room for 1 hour, then the rats were placed in an observation box with a metal mesh floor, and the mice were allowed to stay in the box for 20 minutes to adapt to the experimental platform. Next, a von Frey device was used to detect paw pain by stimulating the surface of the rat's palm with specially designed cilia to detect the mechanical sensitivity of the animal at strength of 0.4 g, 0.8 g, 1.5 g, 2.5 g, 4 g, 8 g, 10 g and 20 g (IITC Life Science, Woodland Hills, 2390 series). […] The rat movement response was considered to be a vague response, in which case the stimulation experiment was repeated.

[3] = test system: hand-foot syndrome caused by Cytarabine in rats; test: Rat model of hand-foot syndrome caused by cytarabine, gel application; format: in vivo; settings: Cytarabine 120 mg/kg twice per day, gel 3 wt%, 30 days
Procedure: as §1
(§2) The effects of thymidine derivative or a combination of thymidine derivative and uridine derivative on the chemotherapeutic drug-induced hand-foot syndrome in a rat model were tested according to the method in Examples 30-40. At the same time, paws of rats after treatment with the drug were taken and observed for their inflammation by hematoxylin-eosin staining (HE) and immunohistochemical staining (IHC).
(§3) The test thymidine derivative or the combination of thymidine derivative and uridine derivative, as well as the final concentration of the test compounds were shown in Table 8. Table 8 lists the animal experiment combination of a chemotherapeutical drug and the thymidine derivative gel (or the compound gel of thymidine derivative and uridine derivative) and the corresponding experimental results (wherein, the data in the column of control rate=the occurrence rate of hand-foot syndrome in Group of blank—the occurrence rate of hand-foot syndrome in Group of administration).

[4] = test system: hand-foot syndrome caused by Acelarin (NUC-1031) in rats; test: Rat model of hand-foot syndrome caused by Acelarin (NUC-1031), gel application; format: in vivo; settings: Acelarin (NUC-1031) 130 mg/kg intraperitoneal injection twice a week, gel 3 wt%, 30 days
Procedure: as §1, §2, §3

[5] = test system: hand-foot syndrome caused by Doxorubicin in rats; test: Rat model of hand-foot syndrome caused by doxorubicin, gel application; format: in vivo; settings: Doxorubicin 7 mg/kg tail intravenous injection once every three days for 20 days, gel 3 wt%, 30 days
Procedure: as §1, §2, §3

[6] = test system: human colon cancer cell HCT116 xenograft; test: Effect of thymidine derivative gel on therapeutical effect of capecitabine, HCT116 xenograft nude mice; format: in vivo, mouse; settings: oral capecitabine 1.5 mmol/kg, 14 days
Procedure: A BALB/C nude mouse (human colon cancer cell HCT116 xenograft) model was established. After the model was stable, the model mice were divided into four groups (in which the average tumor size of each of the 4 groups was kept as consistent as possible). Except the blank group (containing 5 mice), there were 10 mice in each group, which were subject to gavage and application experiments.
Capecitabine was dissolved in a mixed solution of castor oil:ethanol=1:1 (volume ratio). Prior to gavage, the mixture was diluted with PBS to the desired concentration (diluted for about 3 times with PBS solution). […]
A: Group of blank: 5 mice with tumors, no gavage and no drug application; B: blank group: 10 mice with tumors, oral gavage with capecitabine (1.5 mmol/kg), application with blank gel on the back (once per day for 14 days); C: 0.5% T1 group: 10 mice with tumors, oral gavage of capecitabine, application with 0.5% T1 gel (administration method and frequency are the same as those in group B); D: 2% T1 gel group: 10 mice with tumors, oral gavage of capecitabine, application of 2% T1 gel (administration method and frequency are the same as those in group B). […] The tumor size was measured and recorded every 2 days. After 14 days of the experiment, the mice were dissected to take out the tumor, which was weighed and recorded.

[7] = gel 3 wt%, read-out: Control Rate Forepaws
[8] = gel 3 wt%, read-out: Control Rate Hindpaws
[9] = selected compound final concentration 12.5 μM
[10] = selected compound final concentration 25 μM
[11] = selected compound final concentration 50 μM

Structure (SMILES): O=c1[nH]cc(F)c(=O)[nH]1 [5-FU, fluorouracil (5-FU)]
- blood cells (blood cells): can reduce all the blood cells that could be detected

Structure (SMILES): Cc1cn([C@H]2C[C@H](O)[C@@H](COC(=O)C(C)(C)C)O2)c(=O)[nH]c1=O [T4]
- activation at 1 µM (HaCaT cells; Homo sapiens, HaCaT, increase vs Group of 5-FU, 5-FU 20 μM, compound 1 μM, 48 h, read-out: Cell Survival Rate): 20 to 36%
- activation at 10 µM (HaCaT cells; Homo sapiens, HaCaT, increase vs Group of 5-FU, 5-FU 20 μM, compound 10 μM, 48 h, read-out: Cell Survival Rate): 65 to 72%
- activation at 100 µM (HaCaT cells; Homo sapiens, HaCaT, increase vs Group of 5-FU, 5-FU 20 μM, compound 100 μM, 48 h, read-out: Cell Survival Rate): 80 to 90%
- activation at 500 µM (HaCaT cells; Homo sapiens, HaCaT, increase vs Group of 5-FU, 5-FU 20 μM, compound 500 μM, 48 h, read-out: Cell Survival Rate): 70 to 77%
- activation at 1000 µM (HaCaT cells; Homo sapiens, HaCaT, increase vs Group of 5-FU, 5-FU 20 μM, compound 1000 μM, 48 h, read-out: Cell Survival Rate): 2 to 7%
- inhibition in vivo at 3 % [1, 7]: 28.6%
- inhibition in vivo at 3 % [1, 8]: 42.9%
- Control Rate ([1]; SD rats, gel 2 wt% on hind paws): 32.86%
- pain in rats (von Frey mechanical sensitivity) [2]: did not significantly improve pain in rats

Structure (SMILES): CCC1(CC(C)=O)OCCc2c1[nH]c1c(CC(=O)OC[C@H]3O[C@@H](n4cc(C)c(=O)[nH]c4=O)C[C@@H]3O)cccc21 (stereo partly shown) [T26]
- Control Rate Forepaws ([1]; gel 1 wt%): 22.22%
- Control Rate Hindpaws ([1]; gel 1 wt%): 44.44%
- Control Rate Forepaws ([1]; gel 3 wt%): 57.14%
- Control Rate Hindpaws ([1]; gel 3 wt%): 71.43%
- pain in rats (von Frey mechanical sensitivity) [2]: could significantly improve pain in rats

Structure (SMILES): CC(=O)Oc1ccccc1C(=O)OC[C@H]1O[C@@H](n2cc(C)c(=O)[nH]c2=O)C[C@@H]1O [T37]
- Control Rate Forepaws [3]: 22.22%
- Control Rate Hindpaws [3]: 44.44%
- Cell Survival Rate (increased percentage of cell survival compared with the Group of 5-FU) (HaCaT cells; selected compound final concentration 0.8 μM): 36%-44%
- Cell Survival Rate (increased percentage of cell survival compared with the Group of 5-FU) (HaCaT cells; selected compound final concentration 1.6 μM): 55%-62%
- Cell Survival Rate (increased percentage of cell survival compared with the Group of 5-FU) (HaCaT cells; selected compound final concentration 3.13 μM): 61%-69%
- Cell Survival Rate (increased percentage of cell survival compared with the Group of 5-FU) (HaCaT cells; selected compound final concentration 6.25 μM): 68%-76%
- Cell Survival Rate (increased percentage of cell survival compared with the Group of 5-FU) (HaCaT cells; [9]): 52%-60%
- Cell Survival Rate (increased percentage of cell survival compared with the Group of 5-FU) (HaCaT cells; [10]): 49%-57%
- Cell Survival Rate (increased percentage of cell survival compared with the Group of 5-FU) (HaCaT cells; [11]): 52%-59%
- inhibition in vivo at 3 % [1, 7]: 28.6%
- inhibition in vivo at 3 % [1, 8]: 42.9%
- Control Rate Forepaws [4]: 42.86%
- Control Rate Hindpaws [4]: 71.43%
- pain in rats (von Frey mechanical sensitivity) [2]: could significantly improve pain in rats

Structure (SMILES): COc1ccc2cc([C@@H](C)C(=O)OC[C@H]3O[C@@H](n4cc(C)c(=O)[nH]c4=O)C[C@@H]3O)ccc2c1 [T41]
- Cell Survival Rate (increased percentage of cell survival compared with the Group of 5-FU) (HaCaT cells; [9]): 39%-46%
- Cell Survival Rate (increased percentage of cell survival compared with the Group of 5-FU) (HaCaT cells; [10]): 47%-55%
- Cell Survival Rate (increased percentage of cell survival compared with the Group of 5-FU) (HaCaT cells; [11]): 44%-51%
- inhibition in vivo at 3 % [1, 7]: 50%
- inhibition in vivo at 3 % [1, 8]: 62.5%
- inhibition in vivo at 5 % ([1]; read-out: Control Rate Forepaws): 50%
- inhibition in vivo at 5 % ([1]; read-out: Control Rate Hindpaws): 75%
- pain in rats (von Frey mechanical sensitivity) [2]: could significantly improve pain in rats
- Control Rate Forepaws [5]: 57.14%
- Control Rate Hindpaws [5]: 42.86%

Structure (SMILES): CCCCCOC(=O)Nc1nc(=O)n([C@@H]2O[C@H](C)[C@@H](O)[C@H]2O)cc1F [capecitabine, reference compound]
- volume of tumor tissue versus group without capecitabine gavage [6]: significantly smaller than that in Group A
